Positions of bridges follow the written chain, without caps; N, C: chain ends. Non-standard residues stand in square brackets, D forms with d. Residues, ends and D or L forms follow the SMILES beside them. No end group written: not given here. R8 = C=CCCCCCC[C@@](C)(N)C(=O)O; S5 = C=CCCC[C@](C)(N)C(=O)O
T1: HSV-1 Processivity Factor (UL42) (HSV-1 (strain KOS), UniProt P10226 1-488)
T1 sequence: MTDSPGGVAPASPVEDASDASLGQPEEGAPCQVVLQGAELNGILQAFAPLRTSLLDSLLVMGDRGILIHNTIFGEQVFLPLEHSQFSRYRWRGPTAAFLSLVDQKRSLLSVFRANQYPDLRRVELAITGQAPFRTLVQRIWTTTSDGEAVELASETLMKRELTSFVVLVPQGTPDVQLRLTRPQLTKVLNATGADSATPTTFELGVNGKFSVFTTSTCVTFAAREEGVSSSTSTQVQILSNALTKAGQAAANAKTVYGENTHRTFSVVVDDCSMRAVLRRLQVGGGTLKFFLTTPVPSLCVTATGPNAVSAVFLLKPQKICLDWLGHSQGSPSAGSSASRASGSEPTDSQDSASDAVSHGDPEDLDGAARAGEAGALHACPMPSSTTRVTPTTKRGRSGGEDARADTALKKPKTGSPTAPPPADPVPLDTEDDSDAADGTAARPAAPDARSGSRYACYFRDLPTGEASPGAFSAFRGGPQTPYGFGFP


Legend:
Vero cells = test: Cytotoxicity observed in the plaque reduction assays; assay type: cell-based, African green monkey
Procedure: (§1) Cells with ~90% confluence in 48-well plates were infected by absorbing virus (~100 PFU/well) for 1 h in 100 µL growth medium followed by adding 200 µL culture medium containing DMSO vehicle or serially diluted peptides or Acyclovir (Tocris Bioscience-Fisher Scientific) to each well of the plate. DMSO was maintained at 1% throughout the treatment. Cells were subsequently fixed and stained with 300 µL PBS containing 4% formaldehyde and 0.2% crystal violet overnight at room temperature. HSV-1 plaques were quantified at ~55 h post-infection of Vero cells. VV (WR strain) infection of BSC-1 cells was analyzed for plaque formation after 24 h. The plaque reduction assays were performed in duplicate and independently repeated twice. Cells were stained, and plaques counted under a dissecting microscope. Data were plotted on the GraphPad Prism.
Cellular cytotoxicity of the N-terminal substituted stapled peptides was also assessed. S-pep7A caused observable cell death at 50 µM in the plaque assays.

HSV-1 = test: microbe, parasite or virus in culture; assay type: cell-based; settings: 1 h
Procedure: as §1
Standard viral plaque reduction assays were conducted in Vero cells to determine if any of the five stapled peptides (S-pep1/3/4/7/8) that were able to block processive DNA synthesis, could also block HSV-1 infection. To minimize possible interference of HSV-1 cell attachment and entry by the peptides, cells were first infected by absorbing the virus for 1 h, followed by treatment with peptides at serial dilutions. […] The EC50 values of both S-pep3 and S-pep8 were approximately 100 µM (FIG. 15C and FIG. 15F). Additionally, S-pep4 was toxic at 12.5 µM, which precluded further optimization.

[1] = target: T1, HSV-1 Processivity Factor (UL42); test: cell-based or functional assay

Molecule | concentration at which toxicity / cell death was observed in the plaque assays (Vero cells) [µM] | EC50 (HSV-1) [µM] | IC50 of in vitro processive DNA synthesis directed by recombinant UL30 and UL42 [1] [µM]
CC(=O)N[C@@H](CCCNC(=N)N)C(=O)N[C@@H](CCCNC(=N)N)C(=O)N[C@H](C(=O)N[C@@H](CCCNC(=N)N)C(=O)N[C@@H](CCCNC(=N)N)C(=O)N[C@@]1(C)CCCC=CCCC[C@@](C)(C(=O)N[C@@H](Cc2ccccc2)C(=O)N[C@@H](CC(=O)O)C(=O)N[C@H](C(=O)N[C@@H](CC(C)C)C(=O)N[C@@H](C)C(=O)O)[C@@H](C)O)NC(=O)[C@H](CCCNC(=N)N)NC(=O)[C@H](Cc2c[nH]cn2)NC(=O)[C@H](CC(C)C)NC1=O)[C@@H](C)O [S-pep7D, Ac-RRTRRXLHRXFDTLA] (Ac-RRTRR[S5]LHR[S5]FDTLA-OH; staple 6-10; C-terminus assumed) | 5 | – | –
CC(=O)N[C@@H](CCCNC(=N)N)C(=O)N[C@H](C(=O)N[C@@H](CCCNC(=N)N)C(=O)N[C@@H](CCCNC(=N)N)C(=O)N[C@@]1(C)CCCC=CCCC[C@@](C)(C(=O)N[C@@H](Cc2ccccc2)C(=O)N[C@@H](CC(=O)O)C(=O)N[C@H](C(=O)N[C@@H](CC(C)C)C(=O)N[C@@H](C)C(=O)O)[C@@H](C)O)NC(=O)[C@H](CCCNC(=N)N)NC(=O)[C@H](Cc2c[nH]cn2)NC(=O)[C@H](CC(C)C)NC1=O)[C@@H](C)O [S-pep7C, Ac-RTRRXLHRXFDTLA] (Ac-RTRR[S5]LHR[S5]FDTLA-OH; staple 5-9; C-terminus assumed) | 5 | – | –
CC(=O)N[C@@H](CCCNC(=N)N)C(=O)N[C@@H](CCCNC(=N)N)C(=O)N[C@@]1(C)CCCC=CCCCCCC[C@](C)(C(=O)N[C@@H](CC(C)C)C(=O)N[C@@H](C)C(=O)O)NC(=O)[C@H](CC(=O)O)NC(=O)[C@H](Cc2ccccc2)NC(=O)[C@H](C)NC(=O)[C@H](CCCNC(=N)N)NC(=O)[C@H](Cc2c[nH]cn2)NC(=O)[C@H](CC(C)C)NC1=O [S-pep4, Ac-RRXLHRAFDZLA] (Ac-RR[S5]LHRAFD[R8]LA-OH; staple 3-10; C-terminus assumed) | 12.5 | – | –
CC(=O)N[C@H](C(=O)N[C@H](C(=O)N[C@@H](CCCNC(=N)N)C(=O)N[C@@H](CCCNC(=N)N)C(=O)N[C@@]1(C)CCCC=CCCC[C@@](C)(C(=O)N[C@@H](Cc2ccccc2)C(=O)N[C@@H](CC(=O)O)C(=O)N[C@H](C(=O)N[C@@H](CC(C)C)C(=O)N[C@@H](C)C(=O)O)[C@@H](C)O)NC(=O)[C@H](CCCNC(=N)N)NC(=O)[C@H](Cc2c[nH]cn2)NC(=O)[C@H](CC(C)C)NC1=O)[C@@H](C)O)C(C)C [S-pep7A, Ac-VTRRXLHRXFDTLA] (Ac-VTRR[S5]LHR[S5]FDTLA-OH; staple 5-9; C-terminus assumed) | 50 | 9.6 | –
Ac-ETRRMLHRAFDTLA [Native peptide (N-pep)] | – | – | > 200

— patent US20230235301A1, “Compounds and Methods for Treating, Ameliorating, or Preventing Herpes Ocular Keratitis” (THE TRUSTEES OF THE UNIVERSITY OF PENNSYLVANIA, priority 2020, published 2023)
